The text below walks through data of paper PMC3176812, “Co-Crystal Structures of Inhibitors with MRCKβ, a Key Regulator of Tumor Cell Invasion” (PLoS ONE, 2011).

The target in one assay is T1, MRCKβ (Homo sapiens, UniProt Q9Y5S2).
T1 construct: purchased Millipore
Put plainly: IMAP fluorescence polarization in vitro kinase assay, MRCKβ. The assay is classed as biochemical. To be noted: for Inhibition at 3 µM (%) / Inhibition at 30 µM (%): MRCKβ in vitro kinase assay, ATP at enzyme Km (0.7 µM); for Inhibition at 3 µM (%): 3 µM inhibitor; for Inhibition at 30 µM (%): 30 µM inhibitor; for IC50: 10 point dose-response, 0.002–40 µM, 0.7 µM ATP; for inhibition at 3 µM: read-out: Inhibition at 3 µM (%); for inhibition at 30 µM: read-out: Inhibition at 30 µM (%).

Assay [1] concerns MDA MB 231 breast cancer cells. Put plainly: 3-dimensional inverse matrigel invasion assay. Type of assay: cell-based. To be noted: 5 days. The source says: The contribution of MRCK to tumor cell invasion was examined by knocking down both MRCKα and MRCKβ in MB 231 breast cancer cells and determining the effects in a 3-dimensional inverse matrigel invasion assay. The combined MRCKα plus MRCKβ knockdown could be achieved either with two siRNA duplexes targeting each mRNA transcript (MRCKα+β) or with a single siRNA duplex (MRCKα/β) that targets both (Figure 1A). Following plating on the underside of Transwell inserts containing a thick layer of matrigel and allowing 5 days for invasion through the porous filter and into the matrigel, the extent of MDA MB 231 cell invasion was determined by fixing and staining cells with propidium iodide, followed by confocal microscopic optical sectioning at 10 µm intervals (Figure 1B).
Cell invasion assays were as previously described. Complete Matrigel was thawed on ice, diluted 1∶1 with PBS and then 100 µl of diluted matrigel pipetted into Transwell inserts in a 24 well tissue culture plate and left to incubate for 30 minutes at 37°C to set. During this time cell suspensions of 3×10^5 cells per ml from each condition were prepared in their normal growth medium. When the Matrigel had set, the Transwell inserts were inverted and 100 µl of cell suspension pipetted onto the filter. […] ImageJ software was used for quantification. […]

The next assay deals with T2, MRCKα (Homo sapiens, UniProt Q5VT25).
T2 construct: purchased Millipore
Put plainly: IMAP fluorescence polarization in vitro kinase assay, MRCKα. Type of assay: biochemical. To be noted: 10 point dose-response, 0.002–40 µM, 0.7 µM ATP. The method, then:
Activity assays for MRCKα and β were performed using an IMAP fluorescence polarization assay kit (Molecular Devices Inc.). […] Dose response inhibition analyses were performed over a drug concentration range from 0.002–40 µM, and single point inhibition was assessed at 3 or 30 µM drug.

Another assay relates to MRCK. Also on record: method as in earlier work. To be noted: >140 times higher ATP concentration; ref 27 (Amano et al.); cited from earlier work.

T1 sequence (Q9Y5S2 whole entry): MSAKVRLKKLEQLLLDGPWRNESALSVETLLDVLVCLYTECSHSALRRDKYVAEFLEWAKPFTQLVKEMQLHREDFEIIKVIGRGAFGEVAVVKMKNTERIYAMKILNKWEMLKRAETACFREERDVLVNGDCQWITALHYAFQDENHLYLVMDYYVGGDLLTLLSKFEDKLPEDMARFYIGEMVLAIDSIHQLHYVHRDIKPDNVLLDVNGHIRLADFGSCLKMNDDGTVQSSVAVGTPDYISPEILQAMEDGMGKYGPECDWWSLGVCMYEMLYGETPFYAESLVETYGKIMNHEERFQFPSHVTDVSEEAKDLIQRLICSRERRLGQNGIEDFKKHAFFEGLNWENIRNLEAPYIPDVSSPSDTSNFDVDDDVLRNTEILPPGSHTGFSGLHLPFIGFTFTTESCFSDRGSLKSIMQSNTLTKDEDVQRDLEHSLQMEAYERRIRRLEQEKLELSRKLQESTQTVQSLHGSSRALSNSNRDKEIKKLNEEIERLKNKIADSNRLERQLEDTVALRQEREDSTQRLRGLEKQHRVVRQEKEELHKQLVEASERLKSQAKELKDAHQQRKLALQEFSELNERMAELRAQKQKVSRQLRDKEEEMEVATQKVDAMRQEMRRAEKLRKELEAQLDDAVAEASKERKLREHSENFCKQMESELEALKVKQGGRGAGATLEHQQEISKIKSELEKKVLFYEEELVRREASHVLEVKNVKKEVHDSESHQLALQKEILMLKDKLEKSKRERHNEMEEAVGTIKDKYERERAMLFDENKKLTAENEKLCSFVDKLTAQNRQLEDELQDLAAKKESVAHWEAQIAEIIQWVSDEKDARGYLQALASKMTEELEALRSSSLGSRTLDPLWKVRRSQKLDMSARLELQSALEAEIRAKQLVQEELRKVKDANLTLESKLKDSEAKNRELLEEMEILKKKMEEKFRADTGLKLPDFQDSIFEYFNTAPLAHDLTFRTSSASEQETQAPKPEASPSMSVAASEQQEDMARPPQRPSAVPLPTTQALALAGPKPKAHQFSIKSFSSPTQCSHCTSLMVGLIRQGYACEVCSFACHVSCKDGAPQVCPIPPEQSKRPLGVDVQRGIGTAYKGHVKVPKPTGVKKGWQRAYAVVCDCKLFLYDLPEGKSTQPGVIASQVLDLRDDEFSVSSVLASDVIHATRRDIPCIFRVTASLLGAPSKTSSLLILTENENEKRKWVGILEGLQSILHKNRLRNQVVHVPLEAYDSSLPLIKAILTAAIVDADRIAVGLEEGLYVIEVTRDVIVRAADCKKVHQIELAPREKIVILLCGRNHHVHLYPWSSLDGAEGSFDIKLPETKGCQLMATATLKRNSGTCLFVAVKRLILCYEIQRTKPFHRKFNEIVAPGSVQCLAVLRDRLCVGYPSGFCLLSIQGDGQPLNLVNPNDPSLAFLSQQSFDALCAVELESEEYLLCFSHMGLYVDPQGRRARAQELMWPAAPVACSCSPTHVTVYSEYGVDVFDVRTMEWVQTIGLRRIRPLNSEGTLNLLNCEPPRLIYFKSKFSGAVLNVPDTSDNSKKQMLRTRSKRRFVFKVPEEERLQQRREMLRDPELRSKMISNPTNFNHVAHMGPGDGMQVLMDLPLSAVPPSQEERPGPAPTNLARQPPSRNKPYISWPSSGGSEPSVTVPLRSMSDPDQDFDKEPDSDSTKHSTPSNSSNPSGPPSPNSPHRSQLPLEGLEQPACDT
T2 sequence (Q5VT25 whole entry): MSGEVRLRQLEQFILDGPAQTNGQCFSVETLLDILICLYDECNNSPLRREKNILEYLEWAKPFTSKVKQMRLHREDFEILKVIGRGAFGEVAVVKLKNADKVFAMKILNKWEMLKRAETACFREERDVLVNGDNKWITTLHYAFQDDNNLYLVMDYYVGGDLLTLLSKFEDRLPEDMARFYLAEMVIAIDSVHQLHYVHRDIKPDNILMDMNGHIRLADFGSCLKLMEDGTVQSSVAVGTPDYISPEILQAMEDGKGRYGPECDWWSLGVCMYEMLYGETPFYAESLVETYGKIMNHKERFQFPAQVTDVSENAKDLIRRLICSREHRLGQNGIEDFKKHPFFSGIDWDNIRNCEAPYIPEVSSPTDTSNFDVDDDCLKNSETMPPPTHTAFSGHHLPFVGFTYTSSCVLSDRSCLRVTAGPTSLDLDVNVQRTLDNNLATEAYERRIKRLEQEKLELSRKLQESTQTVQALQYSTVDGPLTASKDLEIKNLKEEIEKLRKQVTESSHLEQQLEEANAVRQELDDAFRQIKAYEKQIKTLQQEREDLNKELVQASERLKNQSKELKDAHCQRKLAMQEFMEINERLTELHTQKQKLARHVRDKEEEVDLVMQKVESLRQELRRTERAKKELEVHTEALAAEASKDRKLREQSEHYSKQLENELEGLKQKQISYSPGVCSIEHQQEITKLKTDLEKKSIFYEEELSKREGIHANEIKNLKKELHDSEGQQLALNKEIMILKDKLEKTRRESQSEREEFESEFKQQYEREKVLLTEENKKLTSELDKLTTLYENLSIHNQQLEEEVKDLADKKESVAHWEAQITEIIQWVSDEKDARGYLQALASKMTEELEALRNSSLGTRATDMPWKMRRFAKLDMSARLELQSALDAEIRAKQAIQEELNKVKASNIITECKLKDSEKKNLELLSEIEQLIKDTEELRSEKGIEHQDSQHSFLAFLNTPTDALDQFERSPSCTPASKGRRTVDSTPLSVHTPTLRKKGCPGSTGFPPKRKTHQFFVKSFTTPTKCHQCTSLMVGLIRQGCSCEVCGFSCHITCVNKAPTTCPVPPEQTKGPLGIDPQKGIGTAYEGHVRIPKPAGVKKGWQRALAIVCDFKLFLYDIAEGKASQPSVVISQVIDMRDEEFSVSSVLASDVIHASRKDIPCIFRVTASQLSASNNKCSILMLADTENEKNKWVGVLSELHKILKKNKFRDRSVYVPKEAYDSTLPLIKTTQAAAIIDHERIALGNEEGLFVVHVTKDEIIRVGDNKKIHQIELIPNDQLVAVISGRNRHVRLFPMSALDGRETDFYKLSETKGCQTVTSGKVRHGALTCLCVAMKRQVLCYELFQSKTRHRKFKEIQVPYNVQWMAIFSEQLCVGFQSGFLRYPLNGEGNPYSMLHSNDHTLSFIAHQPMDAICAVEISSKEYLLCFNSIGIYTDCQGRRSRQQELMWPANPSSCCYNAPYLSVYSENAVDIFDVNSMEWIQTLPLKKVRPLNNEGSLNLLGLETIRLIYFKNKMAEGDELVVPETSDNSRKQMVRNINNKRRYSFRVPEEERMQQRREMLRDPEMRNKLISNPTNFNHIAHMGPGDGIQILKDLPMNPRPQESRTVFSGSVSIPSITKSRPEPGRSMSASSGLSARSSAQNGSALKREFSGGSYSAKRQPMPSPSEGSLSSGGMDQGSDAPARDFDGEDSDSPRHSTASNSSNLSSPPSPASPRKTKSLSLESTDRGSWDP

On to `COC(=O)[C@@]1(O)C[C@H]2O[C@]1(C)n1c3ccccc3c3c4c(c5c6ccccc6n2c5c31)C(=O)NC4` [K-252a, Nocardiopsis sp., K-252a], for which, on MRCKβ, the “Inhibition at 3 µM (%)” value is reported as 87.3% and the “Inhibition at 30 µM (%)” value was 98.4%.
The like results for `CCn1cnc2c(Nc3cccc(Cl)c3)nc(N[C@H]3CCCC[C@H]3N)nc21` [Cdk1 Inhibitor, CGP74514A] were, in that order, 87.2% and 100%.
For `C[C@@H](N)[C@H]1CC[C@H](C(=O)Nc2ccncc2)CC1` [Y-27632], on MRCKβ, the IC50 was 470 ± 30 nM, the “Inhibition at 3 µM (%)” value stood at 83.5% and the “Inhibition at 30 µM (%)” value turned out to be 96.6%. The “Invasion 40 µm above the transwell filter surface, combination with MRCKα/β knockdown” value in assay [1] (MDA MB 231 cells with MRCKα/β siRNA knockdown plus Y-27632 treatment) is “significantly more effective than either MRCKα/β knockdown or Y-27632 treatment alone”. In assay [1] (NTC siRNA transfected MDA MB 231 cells), the “Invasion 40 µm above the transwell filter surface, normalized to NTC siRNA transfected cells” value was “significantly reduced invasion”.
For `NC(=O)Nc1sc(-c2ccc(F)cc2)cc1C(N)=O` [TPCA-1, 2-[(aminocarbonyl)amino]-5-(4-fluorophenyl)-3-thiophenecarboxamide], on MRCKβ, the IC50 came out at 1690 ± 130 nM, the inhibition at 3 µM worked out at 50.1% and the inhibition at 30 µM is 88.9%. On MRCKα, this molecule came in with an IC50 of 1040 ± 60 nM.
Turning to `N#CCCc1ccc2c(c1)-c1[nH]c3ccc([N+](=O)[O-])cc3c1CC(=O)N2` [Alsterpaullone, 2-Cyanoethyl], at MRCKβ, the “Inhibition at 3 µM (%)” value is listed as 98.4% and the “Inhibition at 30 µM (%)” value is 94.8%.
On to `CN(C)CCCn1cc(C2=C(c3c[nH]c4ccccc34)C(=O)NC2=O)c2ccccc21` [Bisindolylmaleimide I], for which, at MRCKβ, the “Inhibition at 3 µM (%)” value is reported as 87.9%.
Take Cdk1/2 Inhibitor III: on MRCKβ, the “Inhibition at 3 µM (%)” value turned out to be 100% and the “Inhibition at 30 µM (%)” value is 100%.
Take `CN[C@@H]1C[C@H]2O[C@@](C)([C@@H]1OC)n1c3ccccc3c3c4c(c5c6ccccc6n2c5c31)C(=O)NC4` [Staurosporine]: at MRCKβ, the inhibition at 3 µM came to 98.6% and the inhibition at 30 µM amounted to 100%.
For the molecule `CN(C)C[C@H]1CCn2c(c(C3=C(c4cn(C)c5ccccc45)C(=O)NC3=O)c3ccccc32)C1` [Ro-32-0432], on MRCKβ, the “Inhibition at 3 µM (%)” value was found to be 85.2% and the “Inhibition at 30 µM (%)” value is listed as 68.2%.
In the case of `O=S(=O)(c1cccc2cnccc12)N1CCCNCC1` [Fasudil], in the assay with MRCK, the “Inhibition of MRCK activity” value was “did not effectively inhibit MRCK activity”.
In the case of `O=C1Cc2c([nH]c3ccc([N+](=O)[O-])cc23)-c2ccccc2N1` [Alsterpaullone], on MRCKβ, the inhibition at 3 µM stood at 90.7% and the inhibition at 30 µM stood at 78.4%.
As for `O=S(=O)(NCCNC/C=C/c1ccc(Br)cc1)c1cccc2cnccc12` [H-89], on MRCKβ, the “Inhibition at 3 µM (%)” value is 79.3% and the “Inhibition at 30 µM (%)” value stood at 99.1%.
The like results for `COc1ccc2c(c1)c(C1=C(c3c[nH]c4ccccc34)C(=O)NC1=O)cn2CCCN(C)C` [Gö 6983] were, in that order, 88.6% and 65.1%.
On the same counts, the results for `O=C1Nc2ccc3ncsc3c2/C1=C/c1cnc[nH]1` [PKR Inhibitor] are 80.1% and 100.5%.

The term Inhibition denotes the change of the read-out against control, counted positive when it falls. For orientation: IC50 means the point on the concentration scale where inhibition reaches its midpoint. Read a low IC50 as greater potency. Usually inhibition stands for how much of the control response was suppressed.
